Tests used:
[1] = The drug is tested on Parabacteroides merdae strain: ATCC43184 for biotransformation. The drug concentrations were measured before and after a 12-h incubation by liquid-chromatography-coupled mass spectrometry (LC–MS); details: 2 µM
[2] = The drug is tested on Clostridium symbiosum strain: ATCC14940 for biotransformation. The drug concentrations were measured before and after a 12-h incubation by liquid-chromatography-coupled mass spectrometry (LC–MS); details: 2 µM
[3] = The drug is tested on Bacteroides fragilis strain: ATCC43859 for biotransformation. The drug concentrations were measured before and after a 12-h incubation by liquid-chromatography-coupled mass spectrometry (LC–MS); details: 2 µM
[4] = The drug is tested on Clostridium ramosum strain: DSM1402 for biotransformation. The drug concentrations were measured before and after a 12-h incubation by liquid-chromatography-coupled mass spectrometry (LC–MS); details: thomasclavelia ramosa, 2 µM
[5] = The drug is tested on Eubacterium hallii strain: DSM3353 for biotransformation. The drug concentrations were measured before and after a 12-h incubation by liquid-chromatography-coupled mass spectrometry (LC–MS); details: anaerobutyricum hallii, 2 µM
[6] = roseburia intestinalis, 12 h, 2 µM
Description: The drug is tested on Roseburia intestinalis strain: L1-82 for biotransformation. The drug concentrations were measured before and after a 12-h incubation by liquid-chromatography-coupled mass spectrometry (LC–MS)

[7] = bacteroides stercoris, 12 h, 2 µM
Description: The drug is tested on Bacteroides stercoris strain: ATCC43183 for biotransformation. The drug concentrations were measured before and after a 12-h incubation by liquid-chromatography-coupled mass spectrometry (LC–MS)

[8] = bacteroides thetaiotaomicron, 12 h, 2 µM
Description: The drug is tested on Bacteroides thetaiotaomicron strain: VPI-5482 for biotransformation. The drug concentrations were measured before and after a 12-h incubation by liquid-chromatography-coupled mass spectrometry (LC–MS)

[9] = bacteroides intestinalis, 12 h, 2 µM
Description: The drug is tested on Bacteroides intestinalis strain: DSM17393 for biotransformation. The drug concentrations were measured before and after a 12-h incubation by liquid-chromatography-coupled mass spectrometry (LC–MS)

[10] = The drug is tested on Bacteroides fragilis strain: HMW615 for biotransformation. The drug concentrations were measured before and after a 12-h incubation by liquid-chromatography-coupled mass spectrometry (LC–MS); details: 2 µM
[11] = The drug is tested on Eubacterium rectale strain: ATCC33656 for biotransformation. The drug concentrations were measured before and after a 12-h incubation by liquid-chromatography-coupled mass spectrometry (LC–MS); details: agathobacter rectalis, 2 µM
[12] = The drug is tested on Edwardsiella tarda strain: ATCC23685 for biotransformation. The drug concentrations were measured before and after a 12-h incubation by liquid-chromatography-coupled mass spectrometry (LC–MS); details: 2 µM
[13] = The drug is tested on Odoribacter splanchnicus strain: fecal isolate for biotransformation. The drug concentrations were measured before and after a 12-h incubation by liquid-chromatography-coupled mass spectrometry (LC–MS); details: 2 µM
[14] = parabacteroides johnsonii, 12 h, 2 µM
Description: The drug is tested on Parabacteroides johnsonii strain: DSM18315 for biotransformation. The drug concentrations were measured before and after a 12-h incubation by liquid-chromatography-coupled mass spectrometry (LC–MS)

[15] = bacteroides fragilis, 12 h, 2 µM
Description: The drug is tested on Bacteroides fragilis strain: DS-208 for biotransformation. The drug concentrations were measured before and after a 12-h incubation by liquid-chromatography-coupled mass spectrometry (LC–MS)

[16] = The drug is tested on Bacteroides finegoldii strain: DSM17565 for biotransformation. The drug concentrations were measured before and after a 12-h incubation by liquid-chromatography-coupled mass spectrometry (LC–MS); details: 2 µM
[17] = bacteroides fragilis, 12 h, 2 µM; remark: listed apart in the source
Description: The drug is tested on Bacteroides fragilis strain: NCTC 9343 for biotransformation. The drug concentrations were measured before and after a 12-h incubation by liquid-chromatography-coupled mass spectrometry (LC–MS)

[18] = The drug is tested on Bifidobacterium ruminantium strain: fecal isolate for biotransformation. The drug concentrations were measured before and after a 12-h incubation by liquid-chromatography-coupled mass spectrometry (LC–MS); details: 2 µM
[19] = The drug is tested on Eubacterium ventriosum strain: ATCC27560 for biotransformation. The drug concentrations were measured before and after a 12-h incubation by liquid-chromatography-coupled mass spectrometry (LC–MS); format: ADME; set-up: dose 2 uM, timepoint 0 vs 12 hours; details: 2 µM
[20] = The drug is tested on Alistipes indistinctus strain: DSM22520 for biotransformation. The drug concentrations were measured before and after a 12-h incubation by liquid-chromatography-coupled mass spectrometry (LC–MS); details: 2 µM

Row | Structure (SMILES) | Bacterial Biotransformation [1] | Bacterial Biotransformation [2] | Bacterial Biotransformation [3] | Bacterial Biotransformation [4] | Bacterial Biotransformation [7] | Bacterial Biotransformation [8] | Bacterial Biotransformation [9] | Bacterial Biotransformation [10] | Bacterial Biotransformation [12] | Bacterial Biotransformation [13] | Bacterial Biotransformation [14] | Bacterial Biotransformation [15] | Bacterial Biotransformation [16] | Bacterial Biotransformation [18] | Bacterial Biotransformation [5] | Bacterial Biotransformation [6] | Bacterial Biotransformation [11] | Bacterial Biotransformation [17] | Bacterial Biotransformation [19] | Bacterial Biotransformation [20]
1 | CN(C)C(=O)C(CCN1CCC(O)(c2ccc(Cl)cc2)CC1)(c1ccccc1)c1ccccc1 [LOPERAMIDE] |  | Compound NOT metabolized |  | Compound NOT metabolized | Compound metabolized | Compound NOT metabolized |  | Compound NOT metabolized | Compound NOT metabolized | Compound metabolized |  |  |  |  | Compound NOT metabolized | Compound metabolized | Compound NOT metabolized | Compound metabolized | Compound NOT metabolized | Compound metabolized
2 | CC(C)(C)NC[C@H](O)COc1ccccc1C1CCCC1.CC(C)(C)NC[C@H](O)COc1ccccc1C1CCCC1.O=S(=O)(O)O [PENBUTOLOL SULFATE] | Compound NOT metabolized | Compound NOT metabolized |  |  | Compound NOT metabolized | Compound NOT metabolized | Compound NOT metabolized | Compound NOT metabolized | Compound NOT metabolized | Compound NOT metabolized |  |  | Compound NOT metabolized |  | Compound NOT metabolized | Compound NOT metabolized | Compound NOT metabolized | Compound NOT metabolized | Compound NOT metabolized | Compound NOT metabolized
3 | C=C[C@H]1CN2CC[C@H]1C[C@H]2[C@H](O)c1ccnc2ccc(OC)cc12.C=C[C@H]1CN2CC[C@H]1C[C@H]2[C@H](O)c1ccnc2ccc(OC)cc12.O.O.O=S(=O)(O)O [QUININE SULFATE] |  |  |  | Compound NOT metabolized | Compound NOT metabolized |  | Compound NOT metabolized | Compound NOT metabolized | Compound NOT metabolized | Compound NOT metabolized | Compound NOT metabolized |  | Compound NOT metabolized | Compound NOT metabolized | Compound NOT metabolized | Compound NOT metabolized | Compound NOT metabolized |  | Compound NOT metabolized | 
4 | O=C(NC(Cc1cc(=O)[nH]c2ccccc12)C(=O)O)c1ccc(Cl)cc1 (stereo not given) [REBAMIPIDE] | Compound NOT metabolized | Compound NOT metabolized |  | Compound NOT metabolized | Compound NOT metabolized | Compound NOT metabolized | Compound NOT metabolized | Compound metabolized | Compound NOT metabolized | Compound NOT metabolized | Compound NOT metabolized |  | Compound NOT metabolized | Compound NOT metabolized | Compound NOT metabolized | Compound NOT metabolized | Compound NOT metabolized | Compound NOT metabolized |  | Compound NOT metabolized
5 | O=C(O[C@H]1C[C@H]2CC[C@@H](C1)[N+]21CCCC1)C(O)(c1ccccc1)c1ccccc1.[Cl-] [TROSPIUM CHLORIDE] | Compound NOT metabolized | Compound NOT metabolized |  | Compound NOT metabolized | Compound NOT metabolized | Compound NOT metabolized | Compound NOT metabolized |  | Compound NOT metabolized |  | Compound NOT metabolized | Compound NOT metabolized | Compound NOT metabolized | Compound NOT metabolized | Compound NOT metabolized | Compound NOT metabolized | Compound NOT metabolized | Compound NOT metabolized | Compound NOT metabolized | 

Further lines, with some results ahead:

Row | Bacterial Biotransformation [1] | Bacterial Biotransformation [2] | Bacterial Biotransformation [3] | Bacterial Biotransformation [4] | Bacterial Biotransformation [7] | Bacterial Biotransformation [8] | Bacterial Biotransformation [9] | Bacterial Biotransformation [10] | Bacterial Biotransformation [12] | Bacterial Biotransformation [13] | Bacterial Biotransformation [14] | Bacterial Biotransformation [15] | Bacterial Biotransformation [16] | Bacterial Biotransformation [18] | Structure (SMILES) | Bacterial Biotransformation [5] | Bacterial Biotransformation [6] | Bacterial Biotransformation [11] | Bacterial Biotransformation [17] | Bacterial Biotransformation [19] | Bacterial Biotransformation [20]
6 | Compound NOT metabolized | Compound NOT metabolized | Compound NOT metabolized | Compound NOT metabolized | Compound NOT metabolized | Compound NOT metabolized | Compound NOT metabolized | Compound NOT metabolized | Compound NOT metabolized | Compound NOT metabolized | Compound NOT metabolized | Compound NOT metabolized | Compound metabolized |  | COc1ccc(/C=C/C(=O)Nc2ccccc2C(=O)O)cc1OC | Compound NOT metabolized | Compound NOT metabolized | Compound NOT metabolized |  |  | 
7 |  | Compound NOT metabolized |  | Compound NOT metabolized | Compound metabolized | Compound NOT metabolized |  | Compound metabolized | Compound NOT metabolized | Compound metabolized | Compound metabolized | Compound metabolized | Compound metabolized | Compound NOT metabolized | CCCCC(=O)O[C@]1(C(=O)CO)[C@@H](C)C[C@H]2[C@@H]3CCC4=CC(=O)C=C[C@]4(C)[C@@]3(F)[C@@H](O)C[C@@]21C [BETAMETHASONE VALERATE] |  | Compound NOT metabolized | Compound NOT metabolized | Compound metabolized |  | 
8 | Compound NOT metabolized | Compound NOT metabolized |  | Compound NOT metabolized | Compound NOT metabolized | Compound NOT metabolized | Compound NOT metabolized | Compound NOT metabolized | Compound NOT metabolized | Compound NOT metabolized | Compound NOT metabolized | Compound NOT metabolized | Compound NOT metabolized | Compound metabolized | CC12CC3CC(C)(C1)CC(N)(C3)C2 [MEMANTINE] | Compound NOT metabolized |  |  | Compound NOT metabolized |  | 
9 | Compound NOT metabolized | Compound NOT metabolized | Compound NOT metabolized | Compound NOT metabolized | Compound NOT metabolized | Compound NOT metabolized | Compound NOT metabolized | Compound NOT metabolized | Compound NOT metabolized | Compound NOT metabolized | Compound NOT metabolized | Compound NOT metabolized | Compound NOT metabolized |  | CC(C)(C)NCC(O)COc1cccc2c1CC(O)C(O)C2 (stereo not given) [NADOLOL] | Compound NOT metabolized | Compound NOT metabolized |  |  | Compound NOT metabolized | 

Reference: ChEMBL document CHEMBL5303573, “Mapping human microbiome drug metabolism by gut bacteria and their genes” (Nature, 2019)
